Source: ChEMBL document CHEMBL1201862, “PubChem BioAssay data set” (2004)
Calls of active or inactive are those of the source.

Key:
[1] = biological target: UDP-galactopyranose mutase (Mycobacterium tuberculosis, UniProt P9WIQ1); assay: Inhibitors of Mycobacterium tuberculosis UDP-galactopyranose mutase (UGM) enzyme Measured in Biochemical System Using Plate Reader - 2105-02_Inhibitor_Dose_CherryPick_Activity. [Related pubchem assays (depositor defined):AID504439]
[2] = biological target: Phosphomannomutase 2 (Homo sapiens, UniProt O15305); assay: Counter screen SAR assay for PMM2 inhibitors via a fluorescence intensity assay. [Related pubchem assays (depositor defined):AID1545, AID1574]
Sequence of Phosphomannomutase 2 (O15305 whole entry): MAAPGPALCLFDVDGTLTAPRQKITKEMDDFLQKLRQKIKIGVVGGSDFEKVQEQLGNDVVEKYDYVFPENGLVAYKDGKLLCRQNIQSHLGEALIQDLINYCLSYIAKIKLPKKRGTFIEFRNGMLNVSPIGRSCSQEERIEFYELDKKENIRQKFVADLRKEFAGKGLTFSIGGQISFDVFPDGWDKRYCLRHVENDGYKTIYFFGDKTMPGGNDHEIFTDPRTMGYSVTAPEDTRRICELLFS

[3] = biological target: T1, Mannose-6-phosphate isomerase (Homo sapiens, UniProt P34949); assay: PMI enzyme inhibitors, confirmation, biochemical, fluorescence intensity (AID 1535)
T1 sequence (P34949 whole entry): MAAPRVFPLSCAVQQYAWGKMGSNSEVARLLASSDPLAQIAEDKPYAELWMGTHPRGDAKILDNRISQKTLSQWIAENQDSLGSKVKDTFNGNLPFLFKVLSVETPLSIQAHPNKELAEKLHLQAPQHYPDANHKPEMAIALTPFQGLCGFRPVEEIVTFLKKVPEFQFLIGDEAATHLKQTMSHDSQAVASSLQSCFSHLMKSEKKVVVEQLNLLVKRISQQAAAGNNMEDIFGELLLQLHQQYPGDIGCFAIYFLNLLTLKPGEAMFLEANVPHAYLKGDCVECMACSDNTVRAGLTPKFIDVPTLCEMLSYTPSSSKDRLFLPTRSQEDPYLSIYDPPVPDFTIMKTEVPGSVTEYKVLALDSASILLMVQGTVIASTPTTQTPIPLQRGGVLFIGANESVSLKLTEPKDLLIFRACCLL

[4] = biological target: T1, Mannose-6-phosphate isomerase; assay: inhibitors of human PMI, primary screen, biochemical, fluorescence intensity, coupled assay (AID 1209)
[5] = biological target: Type-1 angiotensin II receptor (Homo sapiens, UniProt P30556); assay: AT1 receptor antagonists, dose response, selectivity assay for APJ receptor antagonist project, cell-based, uHTS hits (AID 463214); assay type: functional;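 note: antagonist potency against angiotensin II stimulated AT1 response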
Sequence of Type-1 angiotensin II receptor (P30556 whole entry): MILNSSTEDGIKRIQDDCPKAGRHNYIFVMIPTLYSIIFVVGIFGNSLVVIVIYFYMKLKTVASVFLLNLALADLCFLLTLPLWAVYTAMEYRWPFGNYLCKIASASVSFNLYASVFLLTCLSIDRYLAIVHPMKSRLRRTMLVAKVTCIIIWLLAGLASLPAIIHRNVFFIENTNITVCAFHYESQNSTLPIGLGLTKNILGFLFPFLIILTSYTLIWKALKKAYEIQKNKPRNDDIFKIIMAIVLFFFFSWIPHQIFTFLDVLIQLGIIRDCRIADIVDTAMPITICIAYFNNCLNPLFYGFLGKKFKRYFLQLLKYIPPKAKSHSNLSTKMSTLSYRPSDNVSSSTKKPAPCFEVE

[6] = biological target: Beta-galactosidase (Escherichia coli, UniProt Q8VNN2); assay: PubChem AID 485352; assay type: functional
Sequence of Beta-galactosidase (Q8VNN2 whole entry): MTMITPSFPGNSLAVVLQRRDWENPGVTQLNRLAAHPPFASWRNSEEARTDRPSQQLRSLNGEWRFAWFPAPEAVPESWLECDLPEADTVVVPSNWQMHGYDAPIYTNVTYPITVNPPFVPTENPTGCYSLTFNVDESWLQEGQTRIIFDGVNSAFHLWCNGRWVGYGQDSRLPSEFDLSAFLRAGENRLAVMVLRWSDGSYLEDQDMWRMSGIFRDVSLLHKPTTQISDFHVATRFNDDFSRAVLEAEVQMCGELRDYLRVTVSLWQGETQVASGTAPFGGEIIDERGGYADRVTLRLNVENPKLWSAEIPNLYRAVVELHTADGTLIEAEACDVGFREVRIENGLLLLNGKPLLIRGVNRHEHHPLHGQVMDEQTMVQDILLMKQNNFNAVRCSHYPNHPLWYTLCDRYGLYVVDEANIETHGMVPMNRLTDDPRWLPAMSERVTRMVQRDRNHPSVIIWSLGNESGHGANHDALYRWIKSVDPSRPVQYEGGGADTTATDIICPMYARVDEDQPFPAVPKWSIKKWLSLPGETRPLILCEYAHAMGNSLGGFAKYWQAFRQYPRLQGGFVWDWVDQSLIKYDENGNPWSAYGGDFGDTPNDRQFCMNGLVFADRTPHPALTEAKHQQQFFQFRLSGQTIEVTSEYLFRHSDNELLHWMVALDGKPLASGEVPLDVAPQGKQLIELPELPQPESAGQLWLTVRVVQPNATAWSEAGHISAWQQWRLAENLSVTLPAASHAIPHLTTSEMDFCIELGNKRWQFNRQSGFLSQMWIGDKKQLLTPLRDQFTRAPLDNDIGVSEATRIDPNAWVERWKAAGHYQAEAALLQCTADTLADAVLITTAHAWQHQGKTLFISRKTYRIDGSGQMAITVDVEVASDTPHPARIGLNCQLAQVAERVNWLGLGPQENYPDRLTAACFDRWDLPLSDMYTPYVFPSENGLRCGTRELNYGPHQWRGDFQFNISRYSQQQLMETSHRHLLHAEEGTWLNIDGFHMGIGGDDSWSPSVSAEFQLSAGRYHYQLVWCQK

[7] = biological target: ATP-dependent molecular chaperone HSP82 (Candida albicans (strain WO-1) (Yeast), UniProt C4YTQ8); assay: loss of DOC-induced GRE-beta-galactosidase reporter signal, dose response, Hsp90 inhibitor project, S. cerevisiae, luminescence (AID 2400); assay type: functional, cell-based;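 note: beta-galactosidase luminescence from glucocorticoid response element reporter as proxy for Hsp90 function; inhibitor potency where signal loss means Hsp90 inhibition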
Sequence of ATP-dependent molecular chaperone HSP82 (C4YTQ8 whole entry): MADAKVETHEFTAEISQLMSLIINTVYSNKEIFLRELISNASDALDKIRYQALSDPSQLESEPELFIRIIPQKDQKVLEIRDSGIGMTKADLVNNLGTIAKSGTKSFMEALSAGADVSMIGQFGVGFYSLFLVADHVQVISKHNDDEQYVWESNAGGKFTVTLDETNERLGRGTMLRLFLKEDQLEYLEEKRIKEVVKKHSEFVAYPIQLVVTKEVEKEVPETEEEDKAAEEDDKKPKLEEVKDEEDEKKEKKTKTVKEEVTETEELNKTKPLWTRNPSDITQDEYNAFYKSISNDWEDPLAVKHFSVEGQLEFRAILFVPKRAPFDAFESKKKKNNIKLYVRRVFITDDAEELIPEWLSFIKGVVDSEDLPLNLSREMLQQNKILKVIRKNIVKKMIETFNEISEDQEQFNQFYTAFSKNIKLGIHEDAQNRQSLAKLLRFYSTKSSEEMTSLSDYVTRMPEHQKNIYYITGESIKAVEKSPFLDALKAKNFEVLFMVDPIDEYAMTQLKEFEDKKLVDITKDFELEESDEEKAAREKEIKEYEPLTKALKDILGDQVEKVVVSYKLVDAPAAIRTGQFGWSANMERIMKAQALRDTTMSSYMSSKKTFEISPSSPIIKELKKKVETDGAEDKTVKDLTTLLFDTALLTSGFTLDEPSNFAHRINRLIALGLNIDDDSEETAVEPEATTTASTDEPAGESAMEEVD

[8] = C. albicans growth with fluconazole, confirmation, fluorescence, retest (AID 2467); assay type: functional, cell-based
[9] = THP-1 cell cytotoxicity, dose response, cytotoxicity control for non-replicating M. tuberculosis project (AID 489025); assay type: functional
[10] = HepG2 cell cytotoxicity, dose response, cytotoxicity control for non-replicating M. tuberculosis project (AID 489018); assay type: functional; details: Mycobacterium tuberculosis
[11] = biological target: T2, Serine/threonine-protein phosphatase (Candida dubliniensis (strain CD36 / CBS 7987 / NCPF 3949 / NRRLY-17841) (Yeast), UniProt B9W6M3); assay: calcineurin pathway inhibitors in yeast reporter, dose response, S. cerevisiae, CDRE-lacZ, luminescence, secondary (AID 2388); assay type: functional, cell-based;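 note: yeast reporter cells carrying a calcineurin-responsive lacZ construct stimulated with calcium chloride; luminescent beta-galactosidase reporter signal in whole cells rather than isolated phosphatase activity; potency for inhibition where a drop in reporter signal means calcineurin blockade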
T2 sequence (B9W6M3 whole entry): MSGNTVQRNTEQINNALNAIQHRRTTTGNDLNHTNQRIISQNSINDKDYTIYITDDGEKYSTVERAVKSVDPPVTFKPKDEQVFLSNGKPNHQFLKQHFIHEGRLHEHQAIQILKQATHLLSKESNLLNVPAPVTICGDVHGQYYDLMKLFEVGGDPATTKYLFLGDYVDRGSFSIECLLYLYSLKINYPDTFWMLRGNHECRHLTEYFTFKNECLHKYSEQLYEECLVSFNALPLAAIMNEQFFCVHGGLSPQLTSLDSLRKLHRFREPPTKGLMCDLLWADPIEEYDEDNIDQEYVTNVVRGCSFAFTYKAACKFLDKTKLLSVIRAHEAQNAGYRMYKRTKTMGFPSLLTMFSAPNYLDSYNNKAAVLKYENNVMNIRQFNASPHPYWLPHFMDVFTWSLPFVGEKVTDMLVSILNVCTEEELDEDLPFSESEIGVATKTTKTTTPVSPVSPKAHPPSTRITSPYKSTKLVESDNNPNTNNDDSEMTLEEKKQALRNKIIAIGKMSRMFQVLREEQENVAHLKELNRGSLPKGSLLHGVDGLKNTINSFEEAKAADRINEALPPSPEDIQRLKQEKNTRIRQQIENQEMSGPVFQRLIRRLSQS

[12] = test system: Streptococcus; assay: Group A Streptococcus viability loss, dose response, counter-screen for streptokinase expression inhibitor project, luminescence, BacTiterGlo (AID 1915); assay type: functional, organism-based;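 note: potency for reduction of bacterial viability or growth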
[13] = cells; assay type: functional
[14] = test system: Streptococcus sp. 'group A'; assay: growth inhibition of control SK(-) GAS strain, dose response, counter-screen for streptokinase expression inhibitor project, luminescence, kanamycin, BacTiterGlo, confirmation (AID 1900); assay type: functional, organism-based
[15] = Vero E6 cell cytotoxicity, dose response, cytotoxicity control for non-replicating M. tuberculosis project, secondary assay (AID 492998); assay type: functional, VeroE6; details: Vero C1008
[16] = NIH-3T3 fibroblast cytotoxicity, dose response, cytotoxicity control, cell-based, fluorescence, Alamar Blue, secondary assay (AID 2327); assay type: functional;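 note: NIH-3T3 mouse fibroblasts cultured with fluconazole at 8 µg/mL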
[17] = test system: A-375; assay: A375 melanoma cell viability reduction, dose response, counter-screen for MITF modulator project, cherry-pick samples, set 2 (AID 540335); assay type: functional, cell-based; details: Homo sapiens
[18] = test system: A-375; assay: MITF: Counter assay: A375 proliferation Measured in Cell-Based System Using Plate Reader - 2084-03_Inhibitor_Dose_DryPowder_Activity. [Related pubchem assays (depositor defined):AID488944]; assay type: functional; details: Homo sapiens
[19] = test system: HEK293; assay: cells; details: Homo sapiens
[20] = test system: HEK293; assay: cells; details: Homo sapiens; remark: listed apart in the source
[21] = biological target: Heat shock protein HSP 90-alpha (Homo sapiens, UniProt P07900); assay type: functional, organism-based
[22] = biological target: T3, High affinity choline transporter 1 (Homo sapiens, UniProt Q9GZV3); assay: CHT inhibitors, dose response, cell-based, 5-point CRC, membrane potential dye (AID 504840); assay type: functional
T3 sequence (Q9GZV3 whole entry): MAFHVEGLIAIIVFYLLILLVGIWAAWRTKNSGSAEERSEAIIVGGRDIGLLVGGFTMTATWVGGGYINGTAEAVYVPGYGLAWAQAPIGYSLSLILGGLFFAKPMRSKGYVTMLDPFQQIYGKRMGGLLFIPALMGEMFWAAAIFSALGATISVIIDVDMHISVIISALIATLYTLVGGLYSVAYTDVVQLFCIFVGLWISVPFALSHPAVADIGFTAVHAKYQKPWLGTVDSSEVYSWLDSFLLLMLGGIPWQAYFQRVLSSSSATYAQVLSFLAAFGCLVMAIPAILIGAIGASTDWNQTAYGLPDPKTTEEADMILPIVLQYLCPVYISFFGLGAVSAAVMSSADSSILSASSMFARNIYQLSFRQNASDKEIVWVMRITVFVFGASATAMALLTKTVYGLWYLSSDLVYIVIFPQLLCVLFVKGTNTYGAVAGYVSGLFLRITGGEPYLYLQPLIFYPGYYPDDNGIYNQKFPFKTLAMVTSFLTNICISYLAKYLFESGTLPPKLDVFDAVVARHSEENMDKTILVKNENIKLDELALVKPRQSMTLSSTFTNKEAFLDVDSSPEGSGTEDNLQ

[23] = inhibitors of SNCA 5'UTR-driven reporter translation, confirmation, H4 neuroglioma cells, luminescence (AID 1988); assay type: functional, cell-based
[24] = inhibitors of firefly luciferase expression or activity, dose response, H4 neuroglioma cells, luminescence (AID 1990); assay type: functional, cell-based
[25] = Luminescence Cell-Based Dose Response HTS to Identify Inhibitors of 5'UTR Stem-Loop Driven Prion Protein mRNA Translation in H4 Neuroglioblastoma Cells. [Related pubchem assays: 1827 (Project Summary), 1813 (Primary HTS)]; assay type: functional

Sequence of UDP-galactopyranose mutase (P9WIQ1 whole entry): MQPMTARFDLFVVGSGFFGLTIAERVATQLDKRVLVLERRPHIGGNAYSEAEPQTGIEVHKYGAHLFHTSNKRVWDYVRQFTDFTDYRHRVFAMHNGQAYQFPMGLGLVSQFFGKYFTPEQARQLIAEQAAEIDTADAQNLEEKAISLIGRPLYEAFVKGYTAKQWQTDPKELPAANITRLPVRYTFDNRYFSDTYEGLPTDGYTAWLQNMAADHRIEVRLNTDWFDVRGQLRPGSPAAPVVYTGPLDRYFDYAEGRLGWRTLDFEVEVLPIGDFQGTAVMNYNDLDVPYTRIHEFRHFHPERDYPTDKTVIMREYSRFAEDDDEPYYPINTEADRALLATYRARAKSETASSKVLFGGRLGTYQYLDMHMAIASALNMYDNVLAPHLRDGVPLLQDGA

Cc1cc(C(C)(C)C)cc(S(=O)(=O)Nc2ccc(C(=O)O)cc2)c1C
AC50 [1]: 0.201 µM (active)

Cc1cc2n(n1)SC(Nc1ccc(F)c(Cl)c1)N2 (configuration not stated)
IC50 [2]: > 100 µM (inactive)
IC50 [3]: > 50 µM (inactive)
IC50 [4]: > 50 µM (not active)

COc1ccccc1N1C(=O)C2C(C(=O)c3ccccc3)=NN(c3ccc(Br)cc3)C2C1=O (configuration not stated)
AC50 [1]: 265 µM (active)

O=C(NNc1ncc(C(F)(F)F)cc1Cl)c1c(Cl)cccc1Cl
IC50 [5]: > 40 µM (not active)
EC50 [6]: > 40 µM (inactive)

O=C(Nc1nnc(C2COc3ccccc3O2)o1)c1ccc(F)cc1 (configuration not stated)
EC50 [7]: > 150 µM (inactive)
EC50 [8]: 0.968 µM (active)
CC50 [9]: 15.7 µM (active)
CC50 [10]: 19.9 µM (active)
EC50 [11]: > 180 µM (inactive)
EC50 [12]: 11.4 µM (active)
IC50 [13]: 1.49 µM (active)
EC50 [14]: 0.98 µM (active)
CC50 [15]: 11.4 µM (active)
EC50 [16]: 25.4 µM (inconclusive)

Cc1ccc(SCc2cn3cc(Cl)ccc3n2)cc1
AC50 [17]: > 35 µM (active)
AC50 [18]: > 35 µM (active)

CN(C)C(=S)N=c1ssc(=S)n1Cc1ccccc1
EC50 [19]: > 59.7 µM (inactive)
EC50 [20]: > 59.7 µM (inactive)

O=C(C=Cc1ccccn1)c1ccccc1O
EC50 [19]: > 59.6 µM (inactive)
EC50 [20]: > 59.6 µM (inactive)
AC50 [21]: 2.37 µM (active)

Cc1ccccc1C(=O)O/N=C/c1c(N2CCOCC2)n(C)c2ccccc12
EC50 [7]: 23.7 µM (active)
EC50 [8]: 0.212 µM (active)
EC50 [11]: > 180 µM (inactive)
IC50 [22]: 21.6 µM (active)
EC50 [23]: 4.88 µM (active)
EC50 [24]: 0.455 µM (active)
EC50 [25]: 11.8 µM (active)
EC50 [16]: > 160 µM (inactive)
